Measured values: ChEMBL document CHEMBL1201862, “PubChem BioAssay data set” (2004)
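Growth conditions: 96-well plates. Treatment: test compound, 48 hours, 5 concentrations. Analysis: linear interpolation between bracketing concentrations; unreached endpoints set to highest concentration. Here, GI50 denotes the concentration required for 50% inhibition of growth.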 Active and inactive are the calls of the source. Rule as the data show it: active = GI50 up to about 1.1 µM and inactive = higher.

Legend:
Experiment in all cases: growth of human tumour cells (NCI), 48 h
[1] = system: SNB-75
[2] = system: CAKI-1
[3] = system: HOP-92
[4] = system: MCF7
[5] = system: KM12
[6] = system: HCC 2998
[7] = system: NCI-H226
[8] = system: UO-31
[9] = system: OVCAR-4
[10] = system: HL-60
[11] = system: UACC-62
[12] = system: LOX IMVI
[13] = system: RXF 393
[14] = system: HCT-15
[15] = system: OVCAR-3
[16] = system: OVCAR-5
[17] = system: M14
[18] = system: MOLT-4
[19] = system: ACHN
[20] = system: UACC-257

Row | SMILES | GI50 [1] | GI50 [2] | GI50 [3] | GI50 [4] | GI50 [5] | GI50 [6] | GI50 [7] | GI50 [8] | GI50 [9] | GI50 [10] | GI50 [11] | GI50 [12] | GI50 [13] | GI50 [14] | GI50 [15] | GI50 [16] | GI50 [17] | GI50 [18] | GI50 [19] | GI50 [20]
1 | O=c1ccn([C@@H]2C=C(CO)[C@@H](O)[C@H]2O)c(=O)[nH]1 | 90.4 µM (inactive) | > 625 µM (inactive) | > 625 µM (inactive) | > 625 µM (inactive) | > 625 µM (inactive) | > 625 µM (inactive) | > 625 µM (inactive) | > 625 µM (inactive) | > 625 µM (inactive) | > 625 µM (inactive) | > 625 µM (inactive) | > 625 µM (inactive) | > 625 µM (inactive) | > 625 µM | > 625 µM (inactive) | – | – | – | – | –
2 | COc1ccc(/C=c2\sc3n(c2=O)CCN=3)cc1 | 57.8 µM (inactive) | – | 29.8 µM (inactive) | – | > 100 µM (inactive) | 62.4 µM (inactive) | – | > 100 µM (inactive) | > 100 µM (inactive) | 69.3 µM (inactive) | > 100 µM (inactive) | 64.7 µM (inactive) | 31.1 µM (inactive) | > 100 µM | > 100 µM (inactive) | > 100 µM (inactive) | > 100 µM (inactive) | 68.5 µM (inactive) | > 100 µM (inactive) | 47.5 µM (inactive)
3 | NCCCN(CCCN)CCN(CCN(CCCN)CCCN)CCN(CCCN)CCCN | 4.95 µM (inactive) | > 100 µM (inactive) | 82.2 µM (inactive) | > 100 µM (inactive) | – | > 100 µM (inactive) | > 100 µM (inactive) | > 100 µM (inactive) | > 100 µM (inactive) | > 100 µM (inactive) | – | 67.8 µM (inactive) | – | > 100 µM | > 100 µM (inactive) | > 100 µM (inactive) | > 100 µM (inactive) | > 10 µM (inactive) | > 100 µM (inactive) | > 100 µM (inactive)
4 | c1ccc(-n2cnnc2-c2nsc3ccccc23)cc1 | 29.5 µM (inactive) | – | 53.1 µM (inactive) | – | > 100 µM (inactive) | > 100 µM (inactive) | – | > 100 µM (inactive) | > 100 µM (inactive) | > 100 µM (inactive) | > 100 µM (inactive) | > 100 µM (inactive) | > 100 µM (inactive) | 74 µM | 80.2 µM (inactive) | > 100 µM (inactive) | > 100 µM (inactive) | > 100 µM (inactive) | 67.3 µM (inactive) | > 100 µM (inactive)
5 | C[C@H]1O[C@@H](O[C@H]2[C@@H](O)C[C@H](O[C@H]3[C@@H](O)C[C@H](O[C@H]4CC[C@@]5(C)[C@H](CC[C@@H]6[C@@H]5CC[C@]5(C)[C@@H](C7=CC(=O)OC7)CC[C@]65O)C4)O[C@@H]3C)O[C@@H]2C)C[C@H](O)[C@@H]1O [DIGITOXIN] | 0.0676 µM (active) | 0.0184 µM (active) | 0.0422 µM (active) | 0.0413 µM (active) | 0.0553 µM (active) | 0.171 µM (active) | 0.0635 µM (active) | 0.0414 µM (active) | 0.0199 µM (active) | – | 0.0579 µM (active) | – | 0.0175 µM (active) | 0.0305 µM | < 0.0172 µM (active) | 0.0543 µM (active) | – | – | < 0.015 µM (active) | 0.0582 µM (active)
